Experimental data: patent US10287265B2, “Enantiomers of 8-hydroxyquinoline derivatives and the synthesis thereof” (AVIDIN Co. Ltd., priority 2015, dated 2019)
“Also recorded” adds a separate entry of the source.

Experiments:
[1] = target: T1, human caspase 3 enzyme (Homo sapiens, UniProt P42574); test: Caspase 3 peptidase activity, Ac-DEVD-AMC substrate, fluorescence; format: biochemical
T1 construct: host or cells: E. coli
T1 sequence (P42574 29-175 limits assumed): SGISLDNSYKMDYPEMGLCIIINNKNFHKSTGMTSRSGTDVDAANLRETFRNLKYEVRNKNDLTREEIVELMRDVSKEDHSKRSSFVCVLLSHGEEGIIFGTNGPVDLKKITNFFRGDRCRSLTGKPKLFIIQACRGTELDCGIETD
T1 sequence (P42574 176-277 limits assumed): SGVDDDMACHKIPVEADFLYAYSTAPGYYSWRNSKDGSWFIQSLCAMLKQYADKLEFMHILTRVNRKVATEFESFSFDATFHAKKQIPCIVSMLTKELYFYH
Method: Throughout the experiments, human caspase 3 enzyme produced in E. coli was used as previously described (Mittl PRE, Marco S D, Krebs J F, Karanewsky D S, Priestle J P, Tomaselli K J and Grutter M G (1997) Structure of Recombinant Human CPP32 in Complex with the Tetrapeptide Acetyl-Asp-Val-Ala-Asp Fluoromethyl Ketone. J Biol Chem. 272: 6539-6547). […] After the addition of […] Ac-DEVD-AMC substrate, the reaction ran for 60 min. The amount of generated AMC (7-amino-4-methylcoumarine), which gives information about the enzyme activity, was detected by fluorescence at 360/465 nm.

[2] = target: T2, Human 5-lipoxygenase (Homo sapiens, UniProt P09917); test: 5-lipoxygenase enzyme activity, fluorescence measurement; format: biochemical
T2 construct: host or cells: Sf9 cells
T2 sequence (P09917 1-674): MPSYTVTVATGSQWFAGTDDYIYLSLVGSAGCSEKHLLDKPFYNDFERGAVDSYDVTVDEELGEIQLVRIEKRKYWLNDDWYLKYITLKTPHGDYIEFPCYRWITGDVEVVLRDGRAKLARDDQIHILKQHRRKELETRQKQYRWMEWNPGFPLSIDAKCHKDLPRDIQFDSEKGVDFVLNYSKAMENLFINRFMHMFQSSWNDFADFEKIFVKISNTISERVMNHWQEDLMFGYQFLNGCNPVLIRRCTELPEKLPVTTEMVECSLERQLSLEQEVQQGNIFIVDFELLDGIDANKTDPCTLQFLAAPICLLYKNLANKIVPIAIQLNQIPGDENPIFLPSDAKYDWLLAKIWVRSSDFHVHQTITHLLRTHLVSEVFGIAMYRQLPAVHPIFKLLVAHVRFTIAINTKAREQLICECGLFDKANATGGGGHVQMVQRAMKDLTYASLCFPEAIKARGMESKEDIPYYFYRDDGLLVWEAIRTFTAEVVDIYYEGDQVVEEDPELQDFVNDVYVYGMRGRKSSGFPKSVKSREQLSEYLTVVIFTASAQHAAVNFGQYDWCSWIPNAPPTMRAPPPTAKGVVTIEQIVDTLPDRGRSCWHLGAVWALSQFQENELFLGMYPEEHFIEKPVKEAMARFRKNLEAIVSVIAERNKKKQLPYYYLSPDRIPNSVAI
Method: Human 5-lipoxygenase produced by Sf9 cells was used throughout the experiments. The enzyme was pre-incubated with 10 μM compound according to Example 2 at room temperature, then—after the addition of 25 μM arachidonic acid substrate—the amount of generated rhodamine 123 was determined by fluorescence measurement. Percentage of inhibition rate was calculated by comparison to untreated control reactions.

[3] = system: EPO gene; test: Erythropoietin gene expression in hippocampus and cortex of aged animals, chronic treatment, qRT-PCR; format: in vivo, mouse; conditions: 18-month-old C57BL/6 female mice, 20 mg/l in drinking water for four months
Method: Twenty-four 18-month-old C57BL/6 female mice (Innovo Ltd., Budapest, Hungary) were divided into two groups randomly: Group 1—untreated control, Group 2—treated with the R-enantiomer according to Example 2, administered in drinking water (20 mg/l) for four months. From both groups, 10-10 mice were sacrificed by CO2 inhalation. […]
To study gene expression, total RNA was extracted from the brain tissues with Accuzol™ Total RNA Extraction Solution (Bioneer, Daejeon, South Korea), according to the manufacturer's protocol. cDNA transcription was carried out with the High Capacity cDNA Reverse Transcription Kit (Life Technologies, Foster City, Calif., USA). Expression of the gene coding for erythropoietin, the EPO gene was determined by qRT-PCR (with HPRT gene serving as a control) with the method and instrument described in Example 33. but here, mouse-specific UPL probes (HPRT: 95, EPO: 16) and primer pairs were applied (mouse HPRT1: 5′-tcctcctcagaccgctttt-3′, mouse HPRT2: 5′-[…]-3′; mouse EPO1: 5′-[…]-3′, mouse EPO2: 5′-cttctgcacaacccatcgt-3′).

[4] = system: NF-AT (Nuclear Factor of Activated T Cells) protein; test: NF-AT transcriptional activity, β-galactosidase reporter in Jurkat cells induced by A23187 and PMA; format: cell-based, human
Method: Cells (3×10^6 cells/ml) were incubated with 10 μM compound according to Example 2 in RPMI-1640 medium (pH=7.4) for 20 min at 37° C. Following this, incubation lasted for an additional 4 h in the presence of 0.5 μM A23187 and 50 ng/ml PMA (12-O-tetradecanoylphorbol-13-acetate). Induced effects can be determined by the β-galactosidase activity of cells treated with the compound according to Example 2 and untreated cells as it catalyzes the transformation of FDG (fluorescein di-β-D-galactopyranoside) into fluorescein. Reading of results was carried out with a SpectraFluor Plus plate reader. Decrease of β-galactosidase activity was compared to the effect of 1 μM cyclosporine A which was served as a positive control.

inhibition of caspase-3 enzyme (concentration range in words) [1]: inhibits in micromolar concentration
reduction of the activity of caspase 3 enzyme ([1]; applied concentration of 10 μM): 74%
inhibition of 5-lipoxygenase enzyme (concentration range in words) [2]: inhibits in micromolar concentration
inhibition at 10 µM ([2]; 10 μM concentration, 25 μM arachidonic acid substrate): 54%
IC50 ([4]; Homo sapiens, Jurkat cells, 0.5 μM A23187 and 50 ng/ml PMA, 4 h, read-out: half-value concentration for reduction of the transcriptional activity of NF-AT protein): 2.2 µM
Structure (SMILES): Cc1ccnc(N[C@H](c2ccc(C(F)(F)F)cc2)c2ccc3cccnc3c2O)n1 [Example 2, 7-[(R)-[(4-Methylpyrimidin-2-yl)amino][4-(trifluoromethyl)phenyl]methyl]quinolin-8-ol]
EPO gene expression in hippocampus and cortex compared to untreated control mice [3]: resulted increased EPO gene activity in cerebral cortex and hippocampus; also recorded: induced both hippocampal and cortical EPO expression
inhibition of transcriptional induction regulated by NF-AT (concentration range in words) [4]: inhibits in micromolar concentration
